Data taken from patent US20220160817A1, “Pharmaceutical composition with improved stability” (Foresee Pharmaceuticals Co., Ltd., priority 2014, published 2022).
Values belong to the compound of their own block, whether it stands above or below them.

Columns and labels:
Type in all cases: physicochemical
[1] = FMOC-SER-OH / FMOC-ARG-OH reaction with D,L-lactide monomers in NMP at 25° C., HPLC; conditions: 25% D,L-lactide in NMP
Protocol: All impurity structures identified have polymers reacting with the arginine group of the peptide. In the present invention, it is shown that the conjugates of lactide monomers reacting with the serine group of the peptide are the more significant impurities generated, that were not observed previously. To test the generation of leuprolide conjugates with lactide monomers, FMOC-ARG-OH or FMOC-SER-OH was dissolved in NMP. To this solution D,L-lactide monomers were added. The solution was mixed well by vortexing. 5 uL of the solution was added to an HPLC vial with 0.5 mL of acetonitrile and 0.5 mL stability buffer (0.6% TEA/0.3% H3PO4 in water, pH=3.0). The sample was then analyzed by HPLC. The remaining solutions were stored in a glass vial at 25° C. Samples were taken at specified time points and analyzed by UPLC.

[2] = L-lactide monomer impurity generation with leuprolide mesylate in NMP, HPLC; conditions: NMP with 10% L-lactide, 3 hours at 37° C.
[3] = Octreotide mesylate with excess methane sulfonic acid in solvent with added lactide monomer; conditions: pH of the salt solution 2.4, pharmaceutically acceptable solvent
Source text: U.S. Pat. No. 8,343,513 further discloses that in order to reduce the impurities generation, low molecular weight polymers with high acid numbers and significant amount of low pKa acid additives or oligomers have to be used. Such acidic dispersed phases are not suitable for human parenteral use due to tissue irritation from the low pH. […] In fact more impurities are generated for the solution with excess acid than the one without.

impurities generated with D,L-lactide monomers ([1]; 1 day at 25° C.): less than that seen with the serine
Compound: NC(N)=NCCC[C@H](NC(=O)OCC1c2ccccc2-c2ccccc21)C(=O)O [FMOC-ARG-OH]

impurities generated with D,L-lactide monomers ([1]; 3 hours at 25° C.): very little impurities | impurities generated with D,L-lactide monomers ([1]; 1 day at 25° C.): significant amount of impurities
Compound: O=C(N[C@@H](CO)C(=O)O)OCC1c2ccccc2-c2ccccc21 [FMOC-SER-OH]

Compound: leuprolide mesylate [LAMS]
lactide-related impurity peak shape in chromatogram [2]: single peak

Compound: octreotide mesylate
stability of the peptide with added lactide monomer [3]: highly unstable
